Source: PubChem BioAssay (NCI)
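The compound was tested at five concentrations on cells cultured in 96-well plates, with a 48-hour exposure period. Definition used: TGI = concentration required for complete inhibition of growth.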

Legend:
Experiment in all cases: NCI-60 cell line screen, 48 h
A498 renal = system: A498 renal
A549 NSCLC = system: A549 NSCLC
ACHN renal = system: ACHN renal
CAKI-1 renal = system: CAKI-1 renal
COLO 205 colon = system: COLO 205 colon
DU-145 prostate = system: DU-145 prostate
EKVX NSCLC = system: EKVX NSCLC
HCT-116 colon = system: HCT-116 colon
HCT-15 colon = system: HCT-15 colon
HOP-92 NSCLC = system: HOP-92 NSCLC
HT29 colon = system: HT29 colon
IGROV1 ovarian = system: IGROV1 ovarian
KM12 colon = system: KM12 colon
M14 melanoma = system: M14 melanoma
MDA-MB-231 breast = system: MDA-MB-231 breast
MDA-MB-435 = system: MDA-MB-435
MDA-N = system: MDA-N
NCI-H226 lung = system: NCI-H226 lung
NCI-H23 lung = system: NCI-H23 lung
NCI/ADR-RES ovarian = system: NCI/ADR-RES ovarian
OVCAR-3 ovarian = system: OVCAR-3 ovarian
OVCAR-4 ovarian = system: OVCAR-4 ovarian
OVCAR-5 ovarian = system: OVCAR-5 ovarian
OVCAR-8 ovarian = system: OVCAR-8 ovarian
PC-3 prostate = system: PC-3 prostate
RXF 393 renal = system: RXF 393 renal
SF-268 CNS = system: SF-268 CNS
SF-295 CNS = system: SF-295 CNS
SF-539 CNS = system: SF-539 CNS
SK-MEL-28 melanoma = system: SK-MEL-28 melanoma
SK-MEL-5 melanoma = system: SK-MEL-5 melanoma
SN12C renal = system: SN12C renal
SNB-19 CNS = system: SNB-19 CNS
SNB-75 CNS = system: SNB-75 CNS
SW-620 colon = system: SW-620 colon
TK-10 renal = system: TK-10 renal
U251 CNS = system: U251 CNS
UO-31 renal = system: UO-31 renal
BT-549 breast = system: BT-549 breast
CCRF-CEM leukemia = system: CCRF-CEM leukemia
HL-60(TB) leukemia = system: HL-60(TB) leukemia
K-562 leukemia = system: K-562 leukemia
LOX IMVI melanoma = system: LOX IMVI melanoma
MALME-3M melanoma = system: MALME-3M melanoma
MCF7 breast = system: MCF7 breast
MOLT-4 leukemia = system: MOLT-4 leukemia
NCI-H460 lung = system: NCI-H460 lung
NCI-H522 lung = system: NCI-H522 lung
RPMI-8226 leukemia = system: RPMI-8226 leukemia
SK-MEL-2 melanoma = system: SK-MEL-2 melanoma
SK-OV-3 ovarian = system: SK-OV-3 ovarian
SR leukemia = system: SR leukemia
UACC-257 melanoma = system: UACC-257 melanoma
UACC-62 melanoma = system: UACC-62 melanoma

SMILES: CC(O)(C#N)CC(O)(C(F)(F)Cl)C(F)(F)Cl (stereo not drawn)
- TGI (A498 renal): > 10 µM
- TGI (A549 NSCLC): > 10 µM
- TGI (ACHN renal): > 10 µM
- TGI (CAKI-1 renal): > 10 µM
- TGI (COLO 205 colon): > 10 µM
- TGI (DU-145 prostate): > 10 µM
- TGI (EKVX NSCLC): > 10 µM
- TGI (HCT-116 colon): > 10 µM
- TGI (HCT-15 colon): > 10 µM
- TGI (HOP-92 NSCLC): > 10 µM
- TGI (HT29 colon): > 10 µM
- TGI (IGROV1 ovarian): > 10 µM
- TGI (KM12 colon): > 10 µM
- TGI (M14 melanoma): > 10 µM
- TGI (MDA-MB-231 breast): > 10 µM
- TGI (MDA-MB-435): > 10 µM
- TGI (MDA-N): > 10 µM
- TGI (NCI-H226 lung): > 10 µM
- TGI (NCI-H23 lung): > 10 µM
- TGI (NCI/ADR-RES ovarian): > 10 µM
- TGI (OVCAR-3 ovarian): > 10 µM
- TGI (OVCAR-4 ovarian): > 10 µM
- TGI (OVCAR-5 ovarian): > 10 µM
- TGI (OVCAR-8 ovarian): > 10 µM
- TGI (PC-3 prostate): > 10 µM
- TGI (RXF 393 renal): > 10 µM
- TGI (SF-268 CNS): > 10 µM
- TGI (SF-295 CNS): > 10 µM
- TGI (SF-539 CNS): > 10 µM
- TGI (SK-MEL-28 melanoma): > 10 µM
- TGI (SK-MEL-5 melanoma): > 10 µM
- TGI (SN12C renal): > 10 µM
- TGI (SNB-19 CNS): > 10 µM
- TGI (SNB-75 CNS): > 10 µM
- TGI (SW-620 colon): > 10 µM
- TGI (TK-10 renal): > 10 µM
- TGI (U251 CNS): > 10 µM
- TGI (UO-31 renal): > 10 µM

SMILES: CS(=O)(=O)c1ccc2nc(-c3ccc(O)cc3)sc2c1
- TGI (A498 renal): 31.2 µM
- TGI (A549 NSCLC): 34.3 µM
- TGI (ACHN renal): 32.4 µM
- TGI (BT-549 breast): 30.5 µM
- TGI (CAKI-1 renal): 31.4 µM
- TGI (CCRF-CEM leukemia): > 100 µM
- TGI (COLO 205 colon): > 100 µM
- TGI (DU-145 prostate): 29.6 µM
- TGI (EKVX NSCLC): 23.9 µM
- TGI (HCT-116 colon): 30.5 µM
- TGI (HCT-15 colon): 31.7 µM
- TGI (HL-60(TB) leukemia): 63.9 µM
- TGI (HT29 colon): 26 µM
- TGI (IGROV1 ovarian): 34.9 µM
- TGI (K-562 leukemia): > 100 µM
- TGI (KM12 colon): 30.2 µM
- TGI (LOX IMVI melanoma): 45.5 µM
- TGI (M14 melanoma): 38.4 µM
- TGI (MALME-3M melanoma): 31 µM
- TGI (MCF7 breast): 35.5 µM
- TGI (MDA-MB-231 breast): 42.5 µM
- TGI (MDA-MB-435): 37.8 µM
- TGI (MDA-N): 34.4 µM
- TGI (MOLT-4 leukemia): > 100 µM
- TGI (NCI-H226 lung): 36.6 µM
- TGI (NCI-H23 lung): 39.6 µM
- TGI (NCI-H460 lung): 35.3 µM
- TGI (NCI-H522 lung): 29.6 µM
- TGI (NCI/ADR-RES ovarian): 36.2 µM
- TGI (OVCAR-3 ovarian): 31.8 µM
- TGI (OVCAR-5 ovarian): 31.6 µM
- TGI (OVCAR-8 ovarian): 42.7 µM
- TGI (PC-3 prostate): 32.1 µM
- TGI (RPMI-8226 leukemia): 35.7 µM
- TGI (RXF 393 renal): 32.9 µM
- TGI (SF-268 CNS): 32.3 µM
- TGI (SF-295 CNS): 30.3 µM
- TGI (SF-539 CNS): 23.6 µM
- TGI (SK-MEL-2 melanoma): 36.3 µM
- TGI (SK-MEL-5 melanoma): 31.8 µM
- TGI (SK-OV-3 ovarian): 31.3 µM
- TGI (SN12C renal): 35.5 µM
- TGI (SNB-19 CNS): 36.2 µM
- TGI (SR leukemia): 39.8 µM
- TGI (SW-620 colon): 38.4 µM
- TGI (TK-10 renal): 29.8 µM
- TGI (U251 CNS): 39.5 µM
- TGI (UACC-257 melanoma): 38.9 µM
- TGI (UACC-62 melanoma): 34.4 µM
- TGI (UO-31 renal): 28 µM
